# Data published in paper PMC2988379 (The Journal of Biological Chemistry, 2010).
# Positions count from the first letter of the chain named. Like-named read-outs stand apart in the source and are kept apart here.
# Experiments:
# Experiment in all cases: intrinsic Trp fluorescence titration
# Type in all cases: binding
# [1] = target: T1, PimB′ (Corynebacterium glutamicum PimB′, NCgl2106) (Corynebacterium glutamicum, UniProt Q8NNK8, G291S)
# T1 sequence (Q8NNK8 1-381 G291S): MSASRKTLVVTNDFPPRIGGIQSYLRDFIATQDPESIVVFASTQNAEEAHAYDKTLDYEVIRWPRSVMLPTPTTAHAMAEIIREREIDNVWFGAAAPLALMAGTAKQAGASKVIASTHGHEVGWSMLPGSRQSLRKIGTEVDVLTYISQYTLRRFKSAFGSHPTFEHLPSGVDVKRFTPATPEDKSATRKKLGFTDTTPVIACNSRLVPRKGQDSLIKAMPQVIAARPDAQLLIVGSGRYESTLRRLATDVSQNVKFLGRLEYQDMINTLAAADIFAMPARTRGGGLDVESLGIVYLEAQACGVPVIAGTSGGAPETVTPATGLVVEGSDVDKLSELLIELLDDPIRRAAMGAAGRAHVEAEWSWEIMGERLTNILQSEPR
# [2] = target: T2, PimB′ (Corynebacterium glutamicum PimB′, NCgl2106) (Corynebacterium glutamicum, UniProt Q8NNK8, H118S)
# T2 sequence (Q8NNK8 1-381 H118S): T1 sequence (Q8NNK8 1-381 G291S) with H118S, S291G
# [3] = target: T3, PimB′ (Corynebacterium glutamicum PimB′, NCgl2106) (Corynebacterium glutamicum, UniProt Q8NNK8, D13A)
# T3 sequence (Q8NNK8 1-381 D13A): T1 sequence (Q8NNK8 1-381 G291S) with D13A, S291G
# [4] = target: T4, PimB′ (Corynebacterium glutamicum PimB′, NCgl2106) (Corynebacterium glutamicum, UniProt Q8NNK8, R210S)
# T4 sequence (Q8NNK8 1-381 R210S): T1 sequence (Q8NNK8 1-381 G291S) with R210S, S291G
# [5] = target: T5, PimB′ (Corynebacterium glutamicum PimB′, NCgl2106) (Corynebacterium glutamicum, UniProt Q8NNK8)
# T5 sequence (Q8NNK8 1-381): T1 sequence (Q8NNK8 1-381 G291S) with S291G
# [6] = target: T6, PimB′ (Corynebacterium glutamicum PimB′, NCgl2106) (Corynebacterium glutamicum, UniProt Q8NNK8, S205G)
# T6 sequence (Q8NNK8 1-381 S205G): T1 sequence (Q8NNK8 1-381 G291S) with S205G, S291G
# [7] = target: T7, PimB′ (Corynebacterium glutamicum PimB′, NCgl2106) (Corynebacterium glutamicum, UniProt Q8NNK8, D13N)
# T7 sequence (Q8NNK8 1-381 D13N): T1 sequence (Q8NNK8 1-381 G291S) with D13N, S291G
# [8] = target: T8, PimB′ (Corynebacterium glutamicum PimB′, NCgl2106) (Corynebacterium glutamicum, UniProt Q8NNK8, I21A)
# T8 sequence (Q8NNK8 1-381 I21A): T1 sequence (Q8NNK8 1-381 G291S) with I21A, S291G
# [9] = target: T9, PimB′ (Corynebacterium glutamicum PimB′, NCgl2106) (Corynebacterium glutamicum, UniProt Q8NNK8, Q22A)
# T9 sequence (Q8NNK8 1-381 Q22A): T1 sequence (Q8NNK8 1-381 G291S) with Q22A, S291G
# [10] = target: T10, PimB′ (Corynebacterium glutamicum PimB′, NCgl2106) (Corynebacterium glutamicum, UniProt Q8NNK8, R206S)
# T10 sequence (Q8NNK8 1-381 R206S): T1 sequence (Q8NNK8 1-381 G291S) with R206S, S291G
# [11] = target: T11, PimB′ (Corynebacterium glutamicum PimB′, NCgl2106) (Corynebacterium glutamicum, UniProt Q8NNK8, G20W)
# T11 sequence (Q8NNK8 1-381 G20W): T1 sequence (Q8NNK8 1-381 G291S) with G20W, S291G
# [12] = target: T5, PimB′ (Corynebacterium glutamicum PimB′, NCgl2106); remark: listed apart in the source
Kd [12],SMILES,Kd [1],Kd [2],Kd [3],Kd [4],Kd [5],Kd [6],Kd [7],Kd [8],Kd [9],Kd [10],Kd [11]
–,Nc1nc2c(ncn2[C@@H]2O[C@H](COP(=O)(O)OP(=O)(O)O[C@H]3O[C@H](CO)[C@@H](O)[C@H](O)[C@@H]3O)[C@@H](O)[C@H]2O)c(=O)[nH]1 [GDP-Man],68.7 ± 35.5 µM,72.4 ± 27.5 µM,42.8 ± 11.9 µM,40.2 ± 10.7 µM,19 ± 4.6 µM,18.7 ± 4.6 µM,30.1 ± 6.9 µM,56 ± 14.5 µM,60.3 ± 22.8 µM,42.7 ± 9.4 µM,21.9 ± 6.4 µM
36.5 ± 6.9 µM,Nc1nc2c(ncn2[C@@H]2O[C@H](COP(=O)(O)OP(=O)(O)O)[C@@H](O)[C@H]2O)c(=O)[nH]1 [GDP],–,–,–,–,–,–,–,–,–,–,–
